In ChEMBL document CHEMBL3045679, “Microwave-assisted synthesis and pharmacological studies of novel 5-deazaalloxazine derivatives” (2012):
In brackets after ≈: the same amount, converted by molar mass. Activity calls are given as the source filed them. No cut-off for these calls is given here.

Columns and labels:
Rhodotorula mucilaginosa [1] = test: Antifungal activity against Rhodotorula mucilaginosa NCIM 3174 at 1000 ug/disk after 72 hr by disk diffusion method; type: functional; settings: NCIM 3174, 72 h, read-out: DIZ
Aspergillus flavus [2] = test: Antifungal activity against Aspergillus flavus NCIM 535 after 72 hr by broth dilution assay; type: functional; settings: NCIM 535, 72 h
Bacillus subtilis [3] = test: Antibacterial activity against Bacillus subtilis NCIM 2063 at 500 ug/disk after 24 hr by disk diffusion method; type: functional; settings: NCIM 2063, 24 h, read-out: DIZ
Streptomyces albus [4] = test: Antibacterial activity against Streptomyces albus NCIM 2178 at 1000 ug/disk after 24 hr by disk diffusion method; type: functional
Klebsiella aerogenes [5] = test: Antibacterial activity against Enterobacter aerogenes NCIM 2239 at 1000 ug/disk after 24 hr by disk diffusion method; type: functional; settings: NCIM 2239, 24 h, read-out: DIZ
Bacillus cereus [6] = test: Antibacterial activity against Bacillus cereus NCIM 2155 at 500 ug/disk after 24 hr by disk diffusion method; type: functional; settings: NCIM 2155, 24 h, read-out: DIZ
Klebsiella aerogenes [7] = test: Antibacterial activity against Enterobacter aerogenes NCIM 2239 at 500 ug/disk after 24 hr by disk diffusion method; type: functional
Escherichia coli [8] = test: Antibacterial activity against Escherichia coli NCIM 2065 at 500 ug/disk after 24 hr by disk diffusion method; type: functional
Pseudomonas aeruginosa [9] = test: Antibacterial activity against Pseudomonas aeruginosa NCIM 2200 at 1000 ug/disk after 24 hr by disk diffusion method; type: functional; settings: NCIM 2200, 24 h, read-out: DIZ
Bacillus cereus [10] = test: Antibacterial activity against Bacillus cereus NCIM 2155 at 1000 ug/disk after 24 hr by disk diffusion method; type: functional; settings: NCIM 2155, 24 h, read-out: DIZ
Aspergillus niger [11] = test: Antifungal activity against Aspergillus niger NCIM 1196 after 72 hr by broth dilution assay; type: functional; settings: NCIM 1196, 72 h
Lipomyces lipofer [12] = test: Antifungal activity against Lipomyces lipofer NCIM 3252 at 1000 ug/disk after 72 hr by disk diffusion method; type: functional; settings: NCIM 3252, 72 h, read-out: DIZ
Aspergillus niger [13] = test: Antifungal activity against Aspergillus niger NCIM 1196 at 1000 ug/disk after 72 hr by disk diffusion method; type: functional; settings: NCIM 1196, 72 h, read-out: DIZ
Bacillus cereus [14] = test: Antibacterial activity against Bacillus cereus NCIM 2155 after 24 hr by broth dilution assay; type: functional; settings: NCIM 2155, 24 h
Penicillium chrysogenum [15] = test: Antifungal activity against Penicillium chrysogenum NCIM 707 at 1000 ug/disk after 72 hr by disk diffusion method; type: functional; settings: NCIM 707, 72 h, read-out: DIZ
Aspergillus niger [16] = test: Antifungal activity against Aspergillus niger NCIM 1196 at 500 ug/disk after 72 hr by disk diffusion method; type: functional
Aspergillus flavus [17] = test: Antifungal activity against Aspergillus flavus NCIM 535 at 500 ug/disk after 72 hr by disk diffusion method; type: functional
Penicillium chrysogenum [18] = test: Antifungal activity against Penicillium chrysogenum NCIM 707 at 500 ug/disk after 72 hr by disk diffusion method; type: functional
Bacillus subtilis [19] = test: Antibacterial activity against Bacillus subtilis NCIM 2063 after 24 hr by broth dilution assay; type: functional; settings: NCIM 2063, 24 h
Klebsiella aerogenes [20] = test: Antibacterial activity against Enterobacter aerogenes NCIM 2239 after 24 hr by broth dilution assay; type: functional; settings: NCIM 2239, 24 h
Lipomyces lipofer [21] = test: Antifungal activity against Lipomyces lipofer NCIM 3252 at 500 ug/disk after 72 hr by disk diffusion method; type: functional; settings: NCIM 3252, 72 h, read-out: DIZ
Lipomyces lipofer [22] = test: Antifungal activity against Lipomyces lipofer NCIM 3252 after 72 hr by broth dilution assay; type: functional; settings: NCIM 3252, 72 h
Escherichia coli [23] = test: Antibacterial activity against Escherichia coli NCIM 2065 after 24 hr by broth dilution assay; type: functional; settings: NCIM 2065, 24 h
Pseudomonas aeruginosa [24] = test: Antibacterial activity against Pseudomonas aeruginosa NCIM 2200 at 500 ug/disk after 24 hr by disk diffusion method; type: functional
Pseudomonas aeruginosa [25] = test: Antibacterial activity against Pseudomonas aeruginosa NCIM 2200 after 24 hr by broth dilution assay; type: functional; settings: NCIM 2200, 24 h
Aspergillus flavus [26] = test: Antifungal activity against Aspergillus flavus NCIM 535 at 1000 ug/disk after 72 hr by disk diffusion method; type: functional; settings: NCIM 535, 72 h, read-out: DIZ
Rhodotorula mucilaginosa [27] = test: Antifungal activity against Rhodotorula mucilaginosa NCIM 3174 at 500 ug/disk after 72 hr by disk diffusion method; type: functional
Escherichia coli [28] = test: Antibacterial activity against Escherichia coli NCIM 2065 at 1000 ug/disk after 24 hr by disk diffusion method; type: functional; settings: NCIM 2065, 24 h, read-out: DIZ
Streptomyces albus [29] = test: Antibacterial activity against Streptomyces albus NCIM 2178 at 500 ug/disk after 24 hr by disk diffusion method; type: functional, organism-based
Bacillus subtilis [30] = test: Antibacterial activity against Bacillus subtilis NCIM 2063 at 1000 ug/disk after 24 hr by disk diffusion method; type: functional; settings: NCIM 2063, 24 h, read-out: DIZ
Candida albicans [31] = test: Antifungal activity against Candida albicans NCIM 3471 at 1000 ug/disk after 72 hr by disk diffusion method; type: functional
Candida albicans [32] = test: Antifungal activity against Candida albicans NCIM 3471 at 500 ug/disk after 72 hr by disk diffusion method; type: functional
Streptomyces albus [33] = test: Antibacterial activity against Streptomyces albus NCIM 2178 after 24 hr by broth dilution assay; type: functional; settings: NCIM 2178, 24 h
Candida albicans [34] = test: Antifungal activity against Candida albicans NCIM 3471 after 72 hr by broth dilution assay; type: functional; settings: NCIM 3471, 72 h
Rhodotorula mucilaginosa [35] = test: Antifungal activity against Rhodotorula mucilaginosa NCIM 3174 after 72 hr by broth dilution assay; type: functional; settings: NCIM 3174, 72 h

With `COc1cccc2cc3c(=O)[nH]c(=S)[nH]c3nc12` the zone of inhibition at 1000 µg/disc (Rhodotorula mucilaginosa [1]) was 9 mm, the MIC (Aspergillus flavus [2]) was 125 µg/mL (≈ 482 µM) and the zone of inhibition at 500 µg/disc (Bacillus subtilis [3]) was 10 mm. The “diameter of the inhibition zone (DIZ)” value (Streptomyces albus [4]) was “inactive”, the zone of inhibition at 1000 µg/disc (Klebsiella aerogenes [5]) was 12 mm and the zone of inhibition at 500 µg/disc (Bacillus cereus [6]) was 9 mm. The “diameter of the inhibition zone (DIZ)” value (Klebsiella aerogenes [7]) was “inactive”, the zone of inhibition at 500 µg/disc (Escherichia coli [8]; NCIM 2065, 24 h, read-out: DIZ) was 9 mm and the zone of inhibition at 1000 µg/disc (Pseudomonas aeruginosa [9]) was 13 mm. The zone of inhibition at 1000 µg/disc (Bacillus cereus [10]) was 12 mm, the MIC (Aspergillus niger [11]) was 125 µg/mL (≈ 482 µM) and the zone of inhibition at 1000 µg/disc (Lipomyces lipofer [12]) was 14 mm. It also gave a zone of inhibition at 1000 µg/disc (Aspergillus niger [13]) of 10 mm, an MIC (Bacillus cereus [14]) of 62.5 µg/mL (≈ 241 µM) and a zone of inhibition at 1000 µg/disc (Penicillium chrysogenum [15]) of 12 mm. For the same molecule, the zone of inhibition at 500 µg/disc (Aspergillus niger [16]; NCIM 1196, 72 h, read-out: DIZ) was 8 mm, the “diameter of the inhibition zone (DIZ)” value (Aspergillus flavus [17]) was “inactive” and the “diameter of the inhibition zone (DIZ)” value (Penicillium chrysogenum [18]) was “inactive”. It also gave an MIC (Bacillus subtilis [19]) of 7.8 µg/mL (≈ 30.1 µM), an MIC (Klebsiella aerogenes [20]) of 31.2 µg/mL (≈ 120 µM) and a zone of inhibition at 500 µg/disc (Lipomyces lipofer [21]) of 11 mm. The MIC (Lipomyces lipofer [22]) was 125 µg/mL (≈ 482 µM), the MIC (Escherichia coli [23]) was 62.5 µg/mL (≈ 241 µM) and the zone of inhibition at 500 µg/disc (Pseudomonas aeruginosa [24]; NCIM 2200, 24 h, read-out: DIZ) was 10 mm. For the same molecule, the MIC (Pseudomonas aeruginosa [25]) was 7.8 µg/mL (≈ 30.1 µM), the zone of inhibition at 1000 µg/disc (Aspergillus flavus [26]) was 13 mm and the “diameter of the inhibition zone (DIZ)” value (Rhodotorula mucilaginosa [27]) was “inactive”. For the same molecule, the zone of inhibition at 1000 µg/disc (Escherichia coli [28]) was 11 mm, the “diameter of the inhibition zone (DIZ)” value (Streptomyces albus [29]) was “inactive” and the zone of inhibition at 1000 µg/disc (Bacillus subtilis [30]) was 13 mm. For the same molecule, the “diameter of the inhibition zone (DIZ)” value (Candida albicans [31]) was “inactive” and the “diameter of the inhibition zone (DIZ)” value (Candida albicans [32]) was “inactive”.

`O=c1[nH]c(=S)[nH]c2nc3ccc(Br)cc3cc12` was tested, and the zone of inhibition at 1000 µg/disc (Rhodotorula mucilaginosa [1]) was 12 mm, the MIC (Streptomyces albus [33]) was 62.5 µg/mL (≈ 203 µM) and the MIC (Candida albicans [34]) was 125 µg/mL (≈ 406 µM). For the same molecule, the zone of inhibition at 500 µg/disc (Bacillus subtilis [3]) was 12 mm, the zone of inhibition at 1000 µg/disc (Streptomyces albus [4]; NCIM 2178, 24 h, read-out: DIZ) was 12 mm and the zone of inhibition at 1000 µg/disc (Klebsiella aerogenes [5]) was 8 mm. The zone of inhibition at 500 µg/disc (Bacillus cereus [6]) was 10 mm, the “diameter of the inhibition zone (DIZ)” value (Klebsiella aerogenes [7]) was “inactive” and the “diameter of the inhibition zone (DIZ)” value (Escherichia coli [8]) was “inactive”. The zone of inhibition at 1000 µg/disc (Pseudomonas aeruginosa [9]) was 12 mm, the zone of inhibition at 1000 µg/disc (Bacillus cereus [10]) was 15 mm and the zone of inhibition at 1000 µg/disc (Lipomyces lipofer [12]) was 12 mm. For the same molecule, the zone of inhibition at 1000 µg/disc (Aspergillus niger [13]) was 10 mm, the MIC (Bacillus cereus [14]) was 15.6 µg/mL (≈ 50.6 µM) and the zone of inhibition at 1000 µg/disc (Penicillium chrysogenum [15]) was 12 mm. The “diameter of the inhibition zone (DIZ)” value (Aspergillus niger [16]) was “inactive”, the “diameter of the inhibition zone (DIZ)” value (Aspergillus flavus [17]) was “inactive” and the zone of inhibition at 500 µg/disc (Penicillium chrysogenum [18]; NCIM 707, 72 h, read-out: DIZ) was 8 mm. The MIC (Bacillus subtilis [19]) was 7.8 µg/mL (≈ 25.3 µM), the MIC (Klebsiella aerogenes [20]) was 125 µg/mL (≈ 406 µM) and the zone of inhibition at 500 µg/disc (Lipomyces lipofer [21]) was 8 mm. For the same molecule, the MIC (Lipomyces lipofer [22]) was 62.5 µg/mL (≈ 203 µM), the MIC (Escherichia coli [23]) was 125 µg/mL (≈ 406 µM) and the “diameter of the inhibition zone (DIZ)” value (Pseudomonas aeruginosa [24]) was “inactive”. It also gave an MIC (Pseudomonas aeruginosa [25]) of 125 µg/mL (≈ 406 µM), a zone of inhibition at 1000 µg/disc (Aspergillus flavus [26]) of 9 mm and a zone of inhibition at 500 µg/disc (Rhodotorula mucilaginosa [27]; NCIM 3174, 72 h, read-out: DIZ) of 7 mm. For the same molecule, the zone of inhibition at 1000 µg/disc (Escherichia coli [28]) was 10 mm, the “diameter of the inhibition zone (DIZ)” value (Streptomyces albus [29]) was “inactive” and the zone of inhibition at 1000 µg/disc (Bacillus subtilis [30]) was 14 mm. For the same molecule, the zone of inhibition at 1000 µg/disc (Candida albicans [31]; NCIM 3471, 72 h, read-out: DIZ) was 12 mm, the “diameter of the inhibition zone (DIZ)” value (Candida albicans [32]) was “inactive” and the MIC (Rhodotorula mucilaginosa [35]) was 125 µg/mL (≈ 406 µM).
